These results are taken from patent US6613932B1, “Prostaglandin derivatives” (Taisho Pharmaceutical Co., Ltd., priority 1999, dated 2003).

The subject of this experiment is human vascular smooth muscle cells. Kind of experiment: Determination of DNA synthesis inhibition activity (3H-thymidine intake) to human vascular smooth muscle cells. Format: cell-based. The following applies: for Growth inhibition rate (per cent to control): 1 × 10^−5 M compound added, 3H-thymidine intake after culturing 24 hours, compared with vehicle-treated group as control; for inhibiting activity on the growth of human vascular smooth muscle cells: summary in words of Table 1 (1 × 10^−5 M). As to the method: Experiment [Determination of DNA synthesis inhibition activity of PGE1 derivatives to human vascular smooth muscle cells]
On a 24-well plate (manufactured by Corning Co.), 1×10^4 cells/well of quintic culture cells of vascular cells derived from normal human aorta (produced by Kurabo Co.) were inoculated and cultured for 2 days. The medium was exchanged from the growth medium (SG2: produced by Kurabo Co.) to the basal medium (SB2: produced by Kurabo Co.), and cultured for 24 hours, to which was added the growth medium (SG2) containing an ethanol solution of the test compound. ^3H-Thymidine (produced by Daiichi Chemicals Co.) was added in an amount of 0.01 mci/well and, after culturing for 24 hours, the cultured supernatant was removed by suction, followed by washing with a phosphate buffer solution (PBS). 5% Trichloroacetic acid (TCA) was added and, after allowing to stand at 4° C. for 20 minutes, the mixture was washed once with TCA. The mixture was washed with PBS, and dissolved in 0.5 M aqueous potassium hydroxide solution. Intake of ^3H-thymidine was determined using 20 μl of the aqueous potassium hydroxide solution dissolving the cells which incorporated ^3H-thymidine in the nucleus by means of a liquid scintillation counter (manufactured by Hewlett-Packard Co.).
Note: The test compounds were each used as an ethanol solution and compared with a vehicle-treated group as control.

For `CCCC1(C(O)C/C=C/C2C(SCCCO)CC(=O)C2CCCCCCC(=O)OC)CCC1` [Compound 41, (11R,16S)-11,15-Dideoxy-11-(3-hydroxypropylthio)-16-hydroxy-17,17-trimethylene-PGE1 methyl ester], the “Growth inhibition rate (per cent to control)” value is recorded as 93.2 per cent to control and the “inhibiting activity on the growth of human vascular smooth muscle cells” value (from here on “inhibiting activity on the growth”) was “high inhibiting activity”.

Consider `CCCC1(C(O)C/C=C/C2C(SCCO)CC(=O)C2CCCC/C=C/C(=O)OC)CCC1` [Compound 32, (2E,11R,16S)-11,15-Dideoxy-11-(2-hydroxyethylthio)-16-hydroxy-17,17-trimethylene-2,3-didehydro-PGE1 methyl ester], for which the “Growth inhibition rate (per cent to control)” value is 100 per cent to control and the “inhibiting activity on the growth” value is on record as “high inhibiting activity”.

On to `CCCC1(C(O)C/C=C/C2C(SCCO)CC(=O)C2CCCCCCC(=O)OC)CCC1` [Compound 23, (11S,16S)-11,15-dideoxy-11-(2-hydroxyethylthio)-16-hydroxy-17,17-trimethylene-PGE1 methyl ester], for which the “Growth inhibition rate (per cent to control)” value is given as 91.5 per cent to control and the “inhibiting activity on the growth” value was “high inhibiting activity”.

With `CCCC1(C(O)C/C=C/C2C(SCCO)CC(=O)C2CCCC/C=C/C(=O)OC)CCC1` [Compound 29, (2E,11R,16R)-11,15-Dideoxy-11-(2-hydroxyethylthio)-16-hydroxy-17,17-trimethylene-2,3-didehydro-PGE1 methyl ester], the “Growth inhibition rate (per cent to control)” value is recorded as 100 per cent to control and the “inhibiting activity on the growth” value is recorded as “high inhibiting activity”.

Take `CCCC1(C(O)C/C=C/C2C(SCC(N)C(=O)OC)CC(=O)C2CCCCCCC(=O)OC)CCC1` [Compound 54, (11R,16S)-11,15-Dideoxy-11-[(2R)-2-methoxycarbonyl-2-aminoethylthio]-16-hydroxy-17,17-trimethylene-PGE1 methyl ester]: the “Growth inhibition rate (per cent to control)” value is given as 100 per cent to control and the “inhibiting activity on the growth” value is given as “high inhibiting activity”.

For `CCCC1(C(O)C/C=C/C2C(SCC(N)C(=O)OC)CC(=O)C2CCCCCCC(=O)OC)CCC1` [Compound 55, (11S,16S)-11,15-dideoxy-11-[(2R)-2-methoxycarbonyl-2-aminoethylthio]-16-hydroxy-17,17-trimethylene-PGE1 methyl ester], the “Growth inhibition rate (per cent to control)” value was 94.3 per cent to control and the “inhibiting activity on the growth” value is on record as “high inhibiting activity”.
